The results in this text go back to ChEMBL document CHEMBL1140197, “Synthesis, characterization and antibacterial activity of cobalt(III) complexes with pyridine-amide ligands” (Eur J Med Chem, 2008).

Series [1] can be described thus: Cytotoxicity against HEK cells assessed as cell viability at 0.73 to 1500 ug/mL after 48 hrs by MTT assay. Particulars: human, hek293, 48 h; call rule not given here. Format: cell-based. For orientation: Tetrazolium assays rely on reduction of a dye to a coloured formazan, in cell work by metabolically active cells.
The test system of series [2] is Raoultella planticola. The series can be described thus: Antibacterial activity against Klebsiella planticola MTCC 2272 after 16 hrs by microbroth dilution method. It counts as functional, organism-based. Background: Dilution methods test growth across graded concentrations, often in twofold steps.
The subject of series [3] is Shigella flexneri. Nature of the series: Antibacterial activity against Shigella flexneri MTCC 1457 after 16 hrs by microbroth dilution method. It counts as functional, organism-based.
For series [4], the system named is Pseudomonas aeruginosa. The series can be described thus: Antibacterial activity against Pseudomonas aeruginosa MTCC 1688 after 16 hrs by microbroth dilution method. Format: functional, organism-based.
The subject of series [5] is Escherichia coli. The series can be described thus: Antibacterial activity against clinical isolate resistant Escherichia coli after 16 hrs by microbroth dilution method. Format: functional, organism-based.
Series [6] concerns Proteus vulgaris. Nature of the series: Antibacterial activity against clinical isolate resistant Proteus vulgaris after 16 hrs by microbroth dilution method. It counts as functional, organism-based.
Series [7] deals with Pseudomonas aeruginosa. Nature of the series: Antibacterial activity against clinical isolate resistant Pseudomonas aeruginosa after 16 hrs by microbroth dilution method. It counts as functional, organism-based.

With GENTAMICIN [listing 1 of 2 here], the outcome in series [1] was Active.
The MIC is the least concentration at which growth counts as inhibited. In the case of GENTAMICIN [listing 2 of 2 here], the minimal inhibitory concentration (MIC) in series [2] is 1.46 µg/mL; in series [3], 1.46 µg/mL; in series [4], 1.46 µg/mL; in series [5], 11 µg/mL; in series [6] it was 187 µg/mL; in series [7] it was 5.5 µg/mL.
